Data taken from patent US7563613B2, “Detoxification and decontamination using nanotechnology therapy” (University of Florida, priority 2001, dated 2009).

Legend:
[1] = cited from earlier work
[2] = at toxic plasma concentration; cited from earlier work
[3] = tested on: guinea pig isolated hearts; assay: bupivacaine-induced QRS prolongation in isolated hearts (FIG. 8); settings: bupivacaine (1 μM); isolated hearts paced at 200 BPM

C[C@H]1O[C@@H](O[C@H]2[C@@H](O)C[C@H](O[C@H]3[C@@H](O)C[C@H](O[C@H]4CC[C@@]5(C)[C@H](CC[C@@H]6[C@@H]5C[C@@H](O)[C@]5(C)[C@@H](C7=CC(=O)OC7)CC[C@]65O)C4)O[C@@H]3C)O[C@@H]2C)C[C@H](O)[C@@H]1O [digoxin]
concentration at which toxicity is caused ([1]; low concentrations): approximately 1 nM

CN(C)CCC=C1c2ccccc2CCc2ccccc21 [amitriptyline]
bound in plasma [2]: 94.8±0.8% | plasma concentration that begins to cause cardiac toxicity ([1]; in vivo): ~1,000 ng/ml

CCCCN1CCCCC1C(=O)Nc1c(C)cccc1C (stereo not shown) [Bupivacaine, bupivacaine]
QRS prolongation [3]: induces QRS prolongation
